Patent US20140045809A1, “CORROLES FOR NEUROPROTECTION AND NEURORESCUE” (priority 2008, published 2014)
“Also recorded” adds a separate entry of the source.

How the values were obtained:
[1] = SOD activity (catalytic decomposition of superoxide anion radical), cytochrome C assay; type: biochemical
Method: (§1) SOD activity (enzyme-like catalytic decomposition of superoxide anion radical) of the corroles 1C-Fe, 6C-Fe, 1C-Mn, 1C-Cu, 2C-Mn and 3C-Mn was examined via the cytochrome C assay. The catalytic rate constants for decomposition of peroxynitrite (PN) by the newly prepared iron corrole 6C-Fe and manganese corrole 3C-Mn were determined via stopped-flow kinetics as previously described for corroles 1C-Fe, 1C-Mn, and 2C-Mn (Mahammed and Gross, 2006; Gershman et al., 2007). These tests are performed in order to estimate how electronic and structural variables affect reactivity, which is a crucial factor for design of new complexes.

[2] = Catalytic decomposition of peroxynitrite (PN), stopped-flow kinetics (Table 1); type: biochemical
Method: as §1

RIN-m cells [3] = test: Protection of RIN-m beta cells against H2O2 toxicity (MTT); type: cell-based, rat; details: H2O2 150 μM
Method: Two insulin-secreting beta cell lines, rat insulinoma (INS-1E) and RIN-m cells, were used to examine the protective effect of corrole 1C-Fe. The cells were cultured at 37° C., in a humid 5% CO2, 95% air environment in regular RPMI-1640 medium (Invitrogen) supplemented with 5% fetal calf serum (FCS).
After 2 days of culture, RIN-m cells (5×10^4 cells/well in 96-well plates) were treated with corrole 1C-Fe (1-50 μM) before addition of 35 μM of H2O2. Cell viability was evaluated by a colorimetric assay for mitochondrial function estimation using the MTT test as previously described (Gassen et al., 1998) and expressed as percentage of control.
RIN-m cells were grown as described in Example 5. After 3 days of culture, RIN-m cells (2.5×10^4 cells/well in 96-well plates) were treated with corroles 1C-Fe or 5C-Fe or porphyrin 1P-Fe (1 and 20 μM), added 30 min prior to treatment with 35 μM H2O2 and further incubated for 24 h. Cell injury was evaluated by MTT test. […] […].
Protective effect of iron(III) corrole complexes against H2O2-induced toxicity (150 μM) was compared to that of manganese(III) corroles and related porphyrin. […].

[4] = Rescuing DMSO from damage attributed to the hydroxyl radical (Fenton reaction); type: biochemical; details: for Yield (%) or amount of product (Formaldehyde): substrate DMSO
Source text: Corrole complexes were examined with respect to their efficiency of rescuing DMSO from damage attributed to the hydroxyl radical, formed via the Fenton reaction that also involves superoxide anion radical and hydrogen […]. It also mimics reaction occurring in biological systems that are exposed to metal toxicity, the situation that occurs in diseases caused by brain iron accumulation.

RIN-m cells [5] = test: Protection of RIN-m cells against SIN-1 toxicity (MTT); type: cell-based, rat; details: 0.1-20 μM, 30 min before SIN-1 (800 μM), 24 h
Method: INS-1E cells or RIN-m cells were cultured in RPMI with low serum content (2% FCS), placed in microtiter plates (96 wells) at a density of 2.5×10^4 cells/well and allowed to attach for 24 h before treatment. Corroles 1C-Fe and 5C-Fe (10 μM) were added 30 min prior to insult with the nitric oxide donor SIN-1 (500 or 600 μM) for a subsequent 24 h period. Cell viability was evaluated by a colorimetric assay for mitochondrial function using 3-(4,5-dimethylthiazol-2-yl)-2,5-diphenyltetrazolium bromide (MTT test), and expressed as percentage of untreated control. Values higher than 100% reflect increased mitochondrial activity induced by the drug. The results represent the mean±SEM of three independent experiments performed under the same conditions.
Insulin-secreting RIN-m cells were incubated in RPMI with low serum content (2% FCS) and placed in microtiter plates (96 wells) at a density of 2.5×10^4 cells/well and allowed to attach for 24 h before treatment. Cells were treated with corroles 1C-Fe, 1C-Mn or 2C-Mn or porphyrins 1P-Fe or 2P-Mn, in various concentrations (0.1-20 μM), for 30 min prior to insult with SIN-1 (800 μM) for a subsequent 24 h period. Cell viability was evaluated by MTT test and expressed as percentage of untreated control.

cleaved caspase-3 = test: Cleaved caspase-3 level in 6-OHDA-treated SH-SY5Y cells, immunofluorescence; type: cell-based, human; details: 20 μM, 30 min before 6-OHDA (40 μM), 24 h
Method: (§2) SH-SY5Y cells were pretreated with or without corroles 1C-Fe, 2C-Mn and 3C-Mn and porphyrins 1P-Fe and 2P-Mn (20 μM), 30 min before exposure to 6-OHDA (40 μM) for a subsequent 24 h period. Cell viability was evaluated by MTT test and cell death was assessed using the apoptotic cell death detection ELISA kit. For neurorescue, SH-SY5Y cells were first exposed to 40 μM 6-OHDA for 0.5. 1, 1.5 and 3 h, followed by the addition of the compounds 1C-Fe, 2C-Mn and 3C-Mn (20 μM) and incubated for further 24 h. Growth-associated protein (GAP-43) was detected by fluorescence microscopy using a specific primary antibody. Apoptotic nuclei were determined by terminal deoxynucleotidyl transferase-mediated UTP-digoxigenin nick end labeling analysis. 4′,6-Diamidino-2-phenylnidole (DAPI) staining was applied for nuclear labeling. […]
Since 6-OHDA is also known to induce apoptosis in various cell types, including SH-SY5Y (von Coelln et al. 2001; Nie et al. 2002; Shimizu et al. 2002; Jordan et al. 2004), we further tested effect of corroles on the levels of the apoptotic marker, cleaved caspase-3, a major executer of the mitochondrial intrinsic pathway of apoptosis.

SH-SY5Y cells [6] = type: cell-based; details: up to 50 μM; data not shown
nitrotyrosine (Ntyr) = test: SIN-1-induced cellular protein nitration, nitrotyrosine immunofluorescence in SH-SY5Y cells; type: cell-based, human; details: 20 μM corrole, SIN-1 700 μM, 24 h
Method: To determine the effect of the corroles on SIN-1-induced cellular protein nitration, SH-SY5Y neuroblastoma cells were treated with SIN-1 (700 μM) in the absence or presence of 20 μM of the corroles 1C-Fe, 2C-Mn, and 3C-Mn. Protein nitration was detected by immunofluorescence analysis using a monoclonal antibody against nitrotyrosine (Ntyr), a biological marker of peroxynitrite.

[7] = Peroxynitrite decomposition rates by manganese corroles (Example 2); type: biochemical; details: 385 μM peroxynitrite, pH 7.4, 25° C., absorbance at 302 nm; Table 2
Method: The investigations were performed by examining the decay of 385 μM peroxynitrite at pH 7.4 and 25° C. in the presence and absence of various amounts of Mn corrole catalysts 2C-Mn, 2C′-Mn, 2C″-Mn, 3C-Mn and 4C-Mn. The differences between 2C-Mn, 2C′-Mn, and 2C″-Mn is in the identity of the 10-aryl group, which is C6F5, para-anisyl, and phenyl, respectively. The results (one example using 4C-Mn is shown in FIG. 1) were obtained by monitoring changes in absorbance at 302 nm, the λmax of peroxynitrite. The catalytic performances of five of the above compounds were tested; and the thus elucidated kcat values are presented in Table 2. Importantly, in sharp contrast with the corroles, none of the structurally similar manganese (III) porphyrin complexes affected the decomposition of peroxynitrite by any extent (not shown).

SH-SY5Y cells [8] = type: cell-based; details: 20 μM
Method: SH-SY5Y cells were cultured in DMEM-Eagle/F-12(HAM) (1:1) containing 10% FCS. Cells were resuspended in medium containing 2% FCS, seeded in microtiter plates (96 wells) and allowed to attach for 24 h. To examine the neuroprotective effect, cells were pretreated for 30 min with corroles 1C-Fe and 5C-Fe (1-20 μM), and were then exposed to 6-OHDA (60 μM) for further 24 h. For neurorescue assessment, SH-SY5Y cells were first treated with 6-OHDA (60 μM) for 0.5 h, 1.5 h, 3 h and 6 h followed by the addition of compounds 1C-Fe and 5C-Fe (10 μM) for further 24 h.
as §2

SH-SY5Y cells [9] = test: Neuroprotection/neurorescue against SIN-1-induced cell death in SH-SY5Y cells; type: cell-based, human
Method: SH-SY5Y cells were cultured in DMEM-Eagle/F-12(HAM) (1:1) containing 10% FCS. Cells were resuspended in medium containing 2% FCS, seeded in microtiter plates (96 wells) and allowed to attach for 24 h before initiation of treatment. […]

[10] = CuSO4/ascorbate, no additive 44 μM
[11] = CuSO4/glutathione, no additive 11 μM
[12] = 30 min before 6-OHDA (40 μM), 24 h

Compound | IC50 [1] [µM] | kcat, catalytic rate constant for decomposition of PN [2] [M⁻¹ s⁻¹] | cytoprotective effect against H2O2-induced toxicity (RIN-m cells [3]) | Yield (%) or amount of product (Formaldehyde) [4, 10] [µM] | Yield (%) or amount of product (Formaldehyde) [4, 11] [µM] | protective effect against SIN-1 induced toxicity (MTT), comparative (RIN-m cells [5]) | 6-OHDA-induced increase of cleaved caspase-3 (cleaved caspase-3) | preventing H2O2-mediated cytotoxicity (SH-SY5Y cells [6]) | preventing oxidative damage / protection against metal-induced oxidation of substrates ([4]; summary of Table 3) | nitrotyrosine (Ntyr) staining, SIN-1-induced (nitrotyrosine (Ntyr)) | kcat, peroxynitrite decomposition rate [7] [M⁻¹ s⁻¹] | protection against 6-OHDA compared with porphyrins 1P-Fe and 2P-Mn (SH-SY5Y cells [8]; 6-OHDA 40 μM, immunofluorescence) | 6-OHDA-induced cytotoxicity (MTT, cell death ELISA) (SH-SY5Y cells [8]; [12]) | cell mortality, morphology and apoptotic nuclei (GAP-43 immunofluorescence, TUNEL, DAPI) (SH-SY5Y cells [8]; [12]) | cytoprotection against different SIN-1 concentrations (SH-SY5Y cells [9]; 25 μM corrole, FIG. 12C) | protection against SIN-1 (MTT reduction analysis and ELISA assay) (SH-SY5Y cells [9]; 30 min before SIN-1, 24 h (Example 12))
O=S(=O)(O)c1cc2[n]3c1C(c1c(F)c(F)c(F)c(F)c1F)=C1C=CC4=[N+]1[Mn-]31[n]3c(cc(S(=O)(=O)O)c3-2)C(c2c(F)c(F)c(F)c(F)c2F)=c2ccc([n]21)=C4c1c(F)c(F)c(F)c(F)c1F (centres unmarked) [1C-Mn, 2,17-bis(sulfonato)-5,10,15-tris(pentafluorophenyl)-corrolato manganese(III)] | 5.9 | 40000 | totally inefficient; also recorded: inefficiency | 20 | 7 | ineffective |  |  |  |  |  |  |  |  |  | 
C[n+]1ccccc1C1=C2C=CC3=[N+]2[Mn-]24[n]5c1ccc5-c1ccc([n]12)C(c1cccc[n+]1C)=c1ccc([n]14)=C3c1cccc[n+]1C (centres unmarked) [3C-Mn, 5,10,15-tris(N-methyl-2-pyridilium)corrolato manganese(III)] | 3.27 | 25000 |  | 0 | 0 |  | totally | not effective | protect better than corrole 1C-Mn | totally abolished | 25000 | remarkable superiority over the porphyrins | significantly attenuated 6-OHDA-induced cytotoxicity | significantly attenuated 6-OHDA-induced cell mortality, improved cell morphology and reduced the number of apoptotic nuclei | protect cells against different SIN-1 concentrations | protect, in a dose-dependent manner; also recorded: more effective not only than 2C-Mn
